Test results as given in patent US10131652B2, “Pyrimidinyloxy benzene derivatives as herbicides” (E. I. DU PONT DE NEMOURS AND COMPANY, priority 2014, dated 2018).

Tested on: cocklebur (common cocklebur, Xanthium strumarium)
Assay: Test F pre-/postemergence plant response
Type: in vivo
Details: scale 0 to 100
Summary of the method: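 Visual control ratings were scored 0 (no effect) to 100 (complete control) versus untreated plants after 14–21 greenhouse days. Compounds, formulated in a surfactant-containing non-phytotoxic solvent, were applied both to silt loam at planting (preemergence) and to 1- to 4-leaf plants 2–18 cm tall (postemergence).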

Q: With `FC(F)c1cc(-c2ccccc2Oc2ncc(Cl)cn2)no1` [Compound 35, 5-chloro-2-[2-[5-(difluoromethyl)-3-isoxazolyl]phenoxy]pyrimidine] as the compound, how does the “Plant response rating, Cocklebur” value (31 g ai/ha Preemergence) read?
A: 0

Q: What about the “Plant response rating, Cocklebur” value (125 g ai/ha Preemergence) of the same compound?
A: 0
